Patent publication US6344342B1, “Human G protein coupled lysophosphatidic acid receptor” (SmithKline Beecham Corporation, priority 1997, dated 2002)

System: HOFNH30
Experiment: Ca2+-mobilization FLIPR assay in RBL-2H3 cells stably expressing HOFNH30
Format: cell-based, human
Settings: several clones of RBL-2H3 cells stably expressing HOFNH30, Fluo 3AM-loaded cells
Source text: One preferred screening method involves co-transfecting HEK-293 cells with a mammalian expression plasmid encoding a G-protein coupled receptor (GPCR), such as HOFNH30, along with a mixture comprised of mammalian expression plasmids cDNAs encoding Gα15 (Wilkie T. M. et al Proc Natl Acad Sci USA 1991 88:10049-10053), Gα16 (Amatruda T. T. et al Proc Natl Acad Sci USA 1991 8:5587-5591, and three chimeric G-proteins refered to as Gqi5, Gqs5, and Gqo5 (Conklin B R et al Nature 1993 363:274-276, Conklin B. R. et al Mol Pharmacol 1996 50:885-890). Following a 24 h incubation the transfected HEK-293 cells are plated into poly-D-lysine coated 96 well black/clear plates (Becton Dickinson, Bedford, Mass.). The cells are assayed on FLIPR (Fluorescent Imaging Plate Reader, Molecular Devices, Sunnyvale, Calif.) for a calcium mobilization response following addition of test ligands. […]
A microtitre plate based Ca2^+-miobilization FLIPR assay (Fluorescent Imaging Plate Reader, Molecular Devices, Sunnyvale, Calif.) was used for the functional identification of the ligand activating RBL-2H3 cells stably expressing HOFNH30. […] After initiation of the assay, fluorescence was read every 1s for 1 min and then every 3 s for the following 1 min.

With CCCCCCCC/C=C\CCCCCCCC(=O)OC[C@@H](O)COP(=O)(O)O [LPA, 1-Oleoyl-sn-glycero-3-phosphate] as the compound, how does the calcium mobilization response read?
Its calcium mobilization response is “dose dependent calcium mobilization response”.
